Test system: 958667-338-R-J2-PDC tumor spheroids viability
Experiment: Anticancer human tumor 958667-338-R-J2-PDC patient-derived colon adenocarcinoma cell line growth inhibition [PI3K]
Conditions: spheroids with HUVEC and MSC; for IC50: curve of first compound; for viability, T/C: stronger effect = lower value
How it was run: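 We assembled tumor spheroids that included a stromal compartment of HUVEC and MSCs, then exposed them to targeted agents alone and together with PI3K pathway inhibitors. Concentration series descended by half-log from clinically achievable Cmax levels. Viability served as the endpoint.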

[1] = second compound 0.0316 µM, first compound 0.0316 µM
[2] = second compound 0.0316 µM, first compound 0.1 µM
[3] = second compound 0.1 µM, first compound 0.0316 µM
[4] = second compound 0.1 µM, first compound 0.1 µM
[5] = second compound 0.316 µM, first compound 0.0316 µM
[6] = second compound 0.316 µM, first compound 0.1 µM
[7] = second compound 1 µM, first compound 0.0316 µM
[8] = second compound 1 µM, first compound 0.1 µM
[9] = second compound 3.16 µM, first compound 0.0316 µM
[10] = second compound 3.16 µM, first compound 0.1 µM
[11] = second compound 10 µM, first compound 0.0316 µM
[12] = second compound 10 µM, first compound 0.1 µM
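Also: spheroids exposed to compounds for seven days before readout.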

CC(C)NCC(C(=O)N1CCN(c2ncnc3c2C(C)CC3O)CC1)c1ccc(Cl)cc1 (centres undefined) + Cc1nc(NC(=O)N2CCCC2C(N)=O)sc1-c1ccnc(C(C)(C)C(F)(F)F)c1
IC50 (second compound 0.0316 µM): > 10000 nM | IC50 (second compound 0.1 µM): > 10000 nM | IC50 (second compound 0.316 µM): > 10000 nM | IC50 (second compound 1 µM): > 10000 nM | IC50 (second compound 3.16 µM): 8170 nM | IC50 (second compound 10 µM): 2360 nM | viability, T/C [1]: 108% | viability, T/C [2]: 99.3% | viability, T/C (second compound 0.0316 µM, first compound 0.316 µM): 96.3% | viability, T/C (second compound 0.0316 µM, first compound 1 µM): 104% | viability, T/C (second compound 0.0316 µM, first compound 3.16 µM): 91.8% | viability, T/C (second compound 0.0316 µM, first compound 10 µM): 64.6% | viability, T/C [3]: 99.4% | viability, T/C [4]: 110% | viability, T/C (second compound 0.1 µM, first compound 0.316 µM): 95.6% | viability, T/C (second compound 0.1 µM, first compound 1 µM): 102% | viability, T/C (second compound 0.1 µM, first compound 3.16 µM): 102% | viability, T/C (second compound 0.1 µM, first compound 10 µM): 60.7% | viability, T/C [5]: 90.7% | viability, T/C [6]: 103% | viability, T/C (second compound 0.316 µM, first compound 0.316 µM): 104% | viability, T/C (second compound 0.316 µM, first compound 1 µM): 85.2% | viability, T/C (second compound 0.316 µM, first compound 3.16 µM): 86.9% | viability, T/C (second compound 0.316 µM, first compound 10 µM): 62.1% | viability, T/C [7]: 107% | viability, T/C [8]: 74.2% | viability, T/C (second compound 1 µM, first compound 0.316 µM): 87.4% | viability, T/C (second compound 1 µM, first compound 1 µM): 75.5% | viability, T/C (second compound 1 µM, first compound 3.16 µM): 89.9% | viability, T/C (second compound 1 µM, first compound 10 µM): 73.5% | viability, T/C [9]: 74.7% | viability, T/C [10]: 68.3% | viability, T/C (second compound 3.16 µM, first compound 0.316 µM): 71.8% | viability, T/C (second compound 3.16 µM, first compound 1 µM): 76.7% | viability, T/C (second compound 3.16 µM, first compound 3.16 µM): 68.5% | viability, T/C (second compound 3.16 µM, first compound 10 µM): 45.9% | viability, T/C [11]: 57.8% | viability, T/C [12]: 66.5% | viability, T/C (second compound 10 µM, first compound 0.316 µM): 57.2% | viability, T/C (second compound 10 µM, first compound 1 µM): 62.5% | viability, T/C (second compound 10 µM, first compound 3.16 µM): 46.2% | viability, T/C (second compound 10 µM, first compound 10 µM): 35.9%

Cn1ncnc1[C@H]1c2n[nH]c(=O)c3cc(F)cc(c23)N[C@@H]1c1ccc(F)cc1 + Cc1nc(NC(=O)N2CCCC2C(N)=O)sc1-c1ccnc(C(C)(C)C(F)(F)F)c1
IC50 (second compound 0.0316 µM): > 100 nM | IC50 (second compound 0.1 µM): > 100 nM | IC50 (second compound 0.316 µM): > 100 nM | IC50 (second compound 1 µM): > 100 nM | IC50 (second compound 3.16 µM): > 100 nM | IC50 (second compound 10 µM): > 100 nM | viability, T/C (second compound 0.0316 µM, first compound 0.000316 µM): 98.7% | viability, T/C (second compound 0.0316 µM, first compound 0.001 µM): 92% | viability, T/C (second compound 0.0316 µM, first compound 0.00316 µM): 113% | viability, T/C (second compound 0.0316 µM, first compound 0.01 µM): 106% | viability, T/C [1]: 94.5% | viability, T/C [2]: 107% | viability, T/C (second compound 0.1 µM, first compound 0.000316 µM): 98% | viability, T/C (second compound 0.1 µM, first compound 0.001 µM): 96.7% | viability, T/C (second compound 0.1 µM, first compound 0.00316 µM): 83.2% | viability, T/C (second compound 0.1 µM, first compound 0.01 µM): 101% | viability, T/C [3]: 91.7% | viability, T/C [4]: 93% | viability, T/C (second compound 0.316 µM, first compound 0.000316 µM): 81.4% | viability, T/C (second compound 0.316 µM, first compound 0.001 µM): 109% | viability, T/C (second compound 0.316 µM, first compound 0.00316 µM): 82.4% | viability, T/C (second compound 0.316 µM, first compound 0.01 µM): 102% | viability, T/C [5]: 87% | viability, T/C [6]: 71.2% | viability, T/C (second compound 1 µM, first compound 0.000316 µM): 83.2% | viability, T/C (second compound 1 µM, first compound 0.001 µM): 86.4% | viability, T/C (second compound 1 µM, first compound 0.00316 µM): 101% | viability, T/C (second compound 1 µM, first compound 0.01 µM): 82.6% | viability, T/C [7]: 78.4% | viability, T/C [8]: 79.5% | viability, T/C (second compound 3.16 µM, first compound 0.000316 µM): 78.4% | viability, T/C (second compound 3.16 µM, first compound 0.001 µM): 78.7% | viability, T/C (second compound 3.16 µM, first compound 0.00316 µM): 85.8% | viability, T/C (second compound 3.16 µM, first compound 0.01 µM): 72.5% | viability, T/C [9]: 82.8% | viability, T/C [10]: 91.3% | viability, T/C (second compound 10 µM, first compound 0.000316 µM): 57.9% | viability, T/C (second compound 10 µM, first compound 0.001 µM): 64.8% | viability, T/C (second compound 10 µM, first compound 0.00316 µM): 73.3% | viability, T/C (second compound 10 µM, first compound 0.01 µM): 60.8% | viability, T/C [11]: 72.7% | viability, T/C [12]: 60.8%

From PubChem BioAssay AID1963963 (Molecular Pharmacology Branch, DTP, NCI, 2024)
